Measured values reported in patent US20180228778A1, “COMPOSITIONS COMPRISING S1P RECEPTOR MODULATORS” (Akaal Pharma Pty Ltd, priority 2015, published 2018).

How the values were obtained:
[1] = test system: LPS challenged macrophages (RAW cells); assay: Inhibition of pro-inflammatory cytokines and factors in LPS challenged macrophages (RAW cells); assay type: cell-based; conditions: in-vitro, 1 to 5 μM
Experimental: The pro-inflammatory cytokines and factors are over expressed in inflammations, cancer and other indications. Lipopolysaccharide is well known to induce various pro-inflammatory factors in the monocytes (RAW cells) and the efficacy of compound on the LPS challenged cells was evaluated for the inhibition of tumor necrosis factor (TNFα), interleukins; IL1P, IL6, and factors such as inducible nitroxide synthase (iNOS), COX-2 and vascular endothelial growth factor (VEGF).

[2] = test system: Phorbol ester mediated irritant contact dermatitis in Swiss albino mice; assay: Phorbol ester mediated irritant model of contact dermatitis; assay type: in vivo; conditions: for reduction of ear swelling (inflammation): alone or in combination (Figure 3)
Experimental: The local application of Phorbol ester stimulates protein Kinase C (PKC), COX, LOX activity, formation of free radicals including the synthesis of mediators that regulate the production of TNF-α. The whole process mediates inflammation and hyperplasia as observed in inflammatory skin diseases such as psoriasis, eczema and others.
The topical efficacy of AKP (a compound of formula (I)) was determined in the Phorbol ester mediated irritant model of contact dermatitis. The 24 animals (Swiss albino mice) were divided in four groups (G1-4) of 6 each; G1 (control and vehicle treated), G2 (PMA challenged and vehicle treated), G3 (PMA challenged and clobetasol treated) and G4 (PMA challenged and AKP treated). The topical application of AKP (3% formulation; or as a DMSO solution) shown significant inhibition of ear inflammation (>40%; p<0.05). […] The combination reduced ear swelling (inflammation) by 43% (p[…]0.001) as shown in Figure-3 (Topical efficacy of AKP, betamethasone or combination in mice model of Phorbol ester mediated irritant contact dermatitis).

[3] = test system: mild to moderate psoriasis; assay: Phase I clinical study of topical use in healthy volunteers and psoriasis patients; assay type: in vivo, human; conditions: daily for 28 days
Experimental: In a clinical study healthy volunteers and psoriasis patients with mild to moderate psoriasis were treated daily for 28 days.
The local psoriasis severity index (LPSI) was measured and recorded significant efficacy (>40%; p=0.0016; Figure-4). FIG. 4 illustrates the clinical effect of AKP.

[4] = test system: DNFB-induced delayed type hypersensitivity (DTH) in BALB/c mice; assay: Dinitroflurobenzene (DNFB)-induced delayed type hypersensitivity (DTH) in BALB/c mice; assay type: in vivo; conditions: oral, twice daily 3 mg/Kg
Description: The formulation of representative compound of formula I have shown efficacy in a delayed-type hypersensitivity (DTH) reaction model. The DTH is an expression of cell-mediated immunity and plays a major role in the pathology and chronicity of many inflammatory disorders including inflammatory skin indications. One of the most characteristic DTH phenomena is contact hypersensitivity, which is characterized by swelling and increased tissue levels of cytokines. Contact hypersensitivity (CHS) is a T cell mediated immune reaction in response to cutaneous sensitization and challenge with reactive haptens those are capable of binding directly to soluble and cell associated proteins and recognized by T cells in the context of self-MHC products. The cells that recognize antigen-protein complex in the skin are the Langerhans cells (LCs). After topical application of an allergen, Langerhans cells (LCs), the major antigen-presenting cells (APCs) for the induction of immune responses in skin, show enhanced expression of surface MHC class II molecules, and start to emigrate from the skin to regional lymph nodes where specific lymphocyte activation is thought to occur. After a second contact with the haptens, T cells are first recruited into tissues and then activated by antigen-presenting cells to produce cytokines that mediate local inflammation. Myeloperoxidase (MPO) is an enzyme exclusively present in neutrophils granules, which is commonly used as an index of granulocyte infiltration.
The effect of AKP (a compound of formula (I)) as an oral treatment was evaluated in dinitroflurobenzene (DNFB)-induced delayed type hypersensitivity (DTH) in BALB/c mice. A total of 18 female BALB/c mice were randomly assigned to 2 groups, Group 1: DTH treated with the vehicle of AKP (N=9); Group 2: DTH treated with AKP-11 twice daily dose of 3 mg/Kg (N=9). […] Ear thickness was measured with a micrometer before challenge and 24 h after challenge. Ear weight was measured 24 h after challenge. […]

Row | Compound | inhibition of pro-inflammatory cytokines and factors (TNFα, IL1P, IL6, iNOS, COX-2, VEGF) [1] | count of lymphocytes in the blood ([2]; topical application) | inhibition of ear inflammation ([2]; topical, 3% formulation or DMSO solution, PMA challenged, p<0.05) [%] | reduction of ear swelling (inflammation) ([2]; topical) [%] | AKP in blood (systemic exposure) [3] | serious adverse events [3] | local psoriasis severity index (LPSI) efficacy ([3]; p=0.0016, Figure 4) [%] | ear thickness ([4]; 24 h after DNFB challenge) | ear weight ([4]; 24 h after DNFB challenge) | tissue MPO activity (right ear) ([4]; at sacrifice)
1 | CCCOc1ccc(-c2nc(-c3ccc4oc(C(N)(CO)CO)cc4c3)no2)cc1Cl [AKP] | markedly inhibited | did not alter | > 40 | 30 | not evident in blood | no serious adverse event | > 40 | significantly reduced | significantly reduced | significantly reduced
2 | C[C@H]1C[C@H]2[C@@H]3CCC4=CC(=O)C=C[C@]4(C)[C@@]3(F)[C@@H](O)C[C@]2(C)[C@@]1(O)C(=O)CO [betamethasone, reference compound] | – | – | – | 30 | – | – | – | – | – | –
